Assay results from patent US7071165B2, “LHRH antagonist peptides” (Indiana University Research and Technology Corporation, priority 1995, dated 2006).
Structures can show the parent of a compound that is named as a salt. Starred links: 1 amine or outer side, 2 acyl side, 3 side chain; linkers in the order of their positions; H or OH if unused. Non-standard residues stand in square brackets, D forms with d. Residues, ends and D or L forms follow the SMILES beside them. *: point of attachment. X2 = O=C([C@@H](Cc1ccc[n+](Cc2ccccc2)c1)N[*:1])[*:2]; dPhe(4-Cl) = N[C@H](Cc1ccc(Cl)cc1)C(=O)O; X3 = C[S+](C)CC[C@@H](N[*:1])C(=O)[*:2]; X4 = C[S+](C)CC[C@H](N[*:1])C(=O)[*:2]; d2Nal = N[C@H](Cc1ccc2ccccc2c1)C(=O)O; Lys(iPr) = CC(C)NCCCC[C@H](N)C(=O)O; NMeY = CN[C@@H](Cc1ccc(O)cc1)C(=O)O; d3Pal = N[C@H](Cc1cccnc1)C(=O)O; NHCH2CH2SO3H = O=S(=O)(O)CCN*; X1 = O=C(c1ccc[n+]([O-])c1)*; Sar = CNCC(=O)O

Experiments:
[1] = test system: rat mast cells; assay: Histamine release assay, rat mast cells
Method: The term “histamine-releasing activity”, as used herein, refers to the tendency of a compound to release histamine when administered to a subject. The histamine-releasing activity of a compound can be measured with an in vitro assay (described in more detail, infra). […] Histamine-releasing activity was assayed by the method described in U.S. Pat. No. 4,851,385 to Roeske. Briefly, a suspension of rat mast cells was added to increasing concentrations of an LHRH antagonist peptide and incubated for 15 minutes at 37° C. The buffer contained 25 mM PIPES, pH 7.4, NaCl (119 mM), KCl (5 mM), NaOH (40 mM) glucose (5.6 mM), CaCl2 (1 mM) and 0.1% bovine serum albumin.

[2] = test system: ovulation in female rats; assay: Anti-ovulatory activity (AOA) in vivo assay in rats; set-up: species or system rat; conditions: for AO activity (AOA), in words: rat, in vivo
Method: As used herein, “LHRH antagonist peptide” is intended to include peptides and peptide analogs which inhibit LHRH activity (i.e., has “LHRH antagonist activity”) in vivo or in vitro. Candidate LHRH antagonist peptides can be assayed, for example, in the animal model described in Corbin and Beattie, Endocrine Res. Commun. 2:1 (1975) (and see infra). In this assay, the LHRH antagonistic activity of a candidate compound is assayed by measuring the antiovulatory activity (AOA) of the compound in rats.
Anti-ovulatory activity (AOA) was measured by an in vivo assay in rats, as described in Corbin and Beattie, Endocrine Res. Commun. 2:1 (1975). In brief, female rats are injected with a candidate LHRH antagonist on the day of proestrus; in general, the candidate LHRH antagonist was dissolved in 0.1% DMSO. The ability of the candidate peptide to inhibit ovulation is measured by determining the number of rats which ovulate. A candidate peptide is considered to have LHRH antagonist qualities if it inhibits ovulation in at least 50% of the treated rats at a dose of 5 μg per rat. Preferred LHRH antagonists inhibit ovulation in at least 50% of rats at a dose of 2 μg per rat, more preferably at a dose of […], and still more preferably at a dose of 0.5 μg per rat.

[3] = test system: ovulation in female rats; assay: as above; conditions: dose 0.5 μg per rat
[4] = rat mast cells, 15 minutes at 37° C.

Molecule	Histamine release ED50 [1, 4]	Histamine-releasing activity, in words [1]	AO activity (AOA): rats which ovulate / rats treated ([2]; dose 1 μg per rat)	further results
Ac-D-(or L)-Ada-Ala^1, 4-Cl-D-Phe^2, D-Pal^3, D-Cit^6-Lys(iPr)^8, D-Ala^10-LHRH.TFA [Compound 3368]	34 µg/mL			AO activity (AOA): rats which ovulate / rats treated ([2]; dose 5 μg per rat): 5/8@5 μg
Ac-L-(or D)-Ada-Ala^1, 4-Cl-D-Phe^2, D-Pal^3, D-Cit^6-Lys(iPr)^8, D-Ala^10-LHRH.TFA [Compound 3369]	93 µg/mL	low histamine release		AO activity (AOA): rats which ovulate / rats treated ([2]; dose 5 μg per rat): 7/8@5 μg
Ac-D-Nal^1, 4-Cl-D-Phe^2, D-Trp^3, D-Arg^6, Met(S^+Me)^8, D-Ala^10-LHRH.2TFA [Compound 3878]			2.8@1.0	AO activity (AOA): rats which ovulate / rats treated [3]: 7/8@0.5
Ac-D-Nal^1, 4-Cl-D-Phe^2, D-Trp^3, D-Met(S^+Me)^6, D-Ala^10-LHRH.2TFA [Compound 3879]			0/8@1.0	AO activity (AOA): rats which ovulate / rats treated [3]: 6/8@0.5; AO activity (AOA), in words [2]: high AOA
Ac-D-Nal^1, 4-Cl-D-Phe^2, D-Pal^3, D-Cit^6-Lys(iPr)^8, Pip^9-D-Ala^10-LHRH.TFA [Compound 3344]	32 µg/mL		9/10@1 μg	
Ac-D-Nal^1, 4-Cl-D-Phe^2, D-Pal^3, D-Cit^6-Lys(iPr)^8, Pip^9-LHRH.TFA [Compound 3363]	25 µg/mL		6/8@1 μg	
CC(=O)N[C@H](Cc1ccc2ccccc2c1)C(=O)N[C@H](Cc1ccc(Cl)cc1)C(=O)N[C@H](Cc1c[nH]c2ccccc12)C(=O)N[C@@H](CO)C(=O)N[C@@H](Cc1ccc(O)cc1)C(=O)N[C@H](CC[S+](C)C)C(=O)N[C@@H](CC(C)C)C(=O)N[C@@H](CC[S+](C)C)C(=O)N1CCC[C@H]1C(=O)N[C@H](C)C(N)=O [Compound 3925, Ac-D-Nal^1,4-Cl-D-Phe^2, D-Trp^3, D-Met(S^+Me)^6, Met(S^+Me)^8, D-Ala^10-LHRH.2TFA] (Ac-[d2Nal][dPhe(4-Cl)][dW]SY[X3]L[X4]P[dA]-NH2)		low histamine release		
Ac-D-Nal^1, 4-Cl-D-Phe^2, D-Pal^3, D-Lys(Ppic)^6, Lys(iPr)^8, D-Ala^10-LHRH.TFA [Compound 3760]			1/8@1.0	AO activity (AOA): rats which ovulate / rats treated [3]: 7/8@0.5; AO activity (AOA), in words [2]: good AO activity
Ac-D-Nal^1, 4-Cl-D-Phe^2, D-Pal^3, D-Cit^6-Lys(iPr)^8-LHRH.TFA [Compound 3362]	22 µg/mL		4/8@1 μg	
Ac-D-Nal^1, 4-Cl-D-Phe^2, D-Pal^3, D-Cit^6-Lys(iPr)^8, ProNHEt^9-des-Gly^10-LHRH.TFA [Compound 3365]	24 µg/mL			
CC(=O)N[C@H](Cc1ccc2ccccc2c1)C(=O)N[C@H](Cc1ccc(Cl)cc1)C(=O)N[C@H](Cc1cccnc1)C(=O)N[C@@H](CO)C(=O)N(C)[C@@H](Cc1ccc(O)cc1)C(=O)N[C@H](CCCCNC(=O)c1ccc[n+]([O-])c1)C(=O)N[C@@H](CC(C)C)C(=O)N[C@@H](CCCCNC(C)C)C(=O)N1CCC[C@H]1C(=O)N[C@H](C)C(N)=O [Compound 3828, Ac-D-Nal^1,4-Cl-D-Phe^2, D-Pal^3, N-Me-Tyr^5, D-Lys(Onic)^8, Lys(iPr)^8, D-Ala^10-LHRH.TFA] (Ac-[d2Nal][dPhe(4-Cl)][d3Pal]S[NMeY][dK](X1)L[Lys(iPr)]P[dA]-NH2)		low histamine releasing activity		
Ac-D-Nal^1, 4-Cl-D-Phe^2, D-Pal^3, D-Lys(Imdac)^6, Lys(iPr)^8, D-Ala^10-LHRH.TFA [Compound 3741]			1/8@1.0	AO activity (AOA): rats which ovulate / rats treated [3]: 6/8@0.5; AO activity (AOA), in words [2]: good AO activity
Ac-D-Nal^1, 4-Cl-D-Phe^2, D-Pal^3, Pal^5, D-Pal(iPr)^6, Lys(iPr)^8, D-Ala^10-LHRH.TFA [Compound 3430]	10 µg/mL		3/8@1 μg	
Ac-D-Nal^1, 4-Cl-D-Phe^2, D-Pal^3, D-Phe(4-NO2)^6-Lys(iPr)^8, D-Ala^10-LHRH.TFA [Compound 3364]	14 µg/mL		6/8@1 μg	
CC(=O)N[C@H](Cc1ccc2ccccc2c1)C(=O)N[C@H](Cc1ccc(Cl)cc1)C(=O)N[C@H](Cc1cccnc1)C(=O)N[C@@H](CO)C(=O)N[C@@H](Cc1ccc(O)cc1)C(=O)N[C@@H](C(=O)N[C@@H](CC(C)C)C(=O)N[C@@H](CCCCNC(C)C)C(=O)N1CCC[C@H]1C(=O)N[C@H](C)C(N)=O)[C@H](C)O [Compound 3343, Ac-D-Nal^1,4-Cl-D-Phe^2, D-Pal^3, D-Thr^6-Lys(iPr)^8, D-Ala^10-LHRH.TFA] (Ac-[d2Nal][dPhe(4-Cl)][d3Pal]SY[dT]L[Lys(iPr)]P[dA]-NH2)		very low histamine release		
Ac-D-Nal^1, 4-Cl-D-Phe^2, D-Pal^3, D-Lys(iPrPic)^6, Lys(iPr)^8, D-Ala^10-LHRH.TFA [Compound 3438]	5.6 µg/mL		2/8@1 μg	
CC(=O)N(C)CC(=O)N[C@H](Cc1ccc(Cl)cc1)C(=O)N[C@H](Cc1ccc2ccccc2c1)C(=O)N[C@@H](CO)C(=O)N[C@@H](Cc1ccc(O)cc1)C(=O)N[C@H](Cc1ccc[n+](Cc2ccccc2)c1)C(=O)N[C@@H](CC(C)C)C(=O)N[C@@H](CCCCNC(C)C)C(=O)N1CCC[C@H]1C(=O)N[C@H](C)C(N)=O [Compound 3763, Ac-Sar^1,4-Cl-D-Phe^2, D-Nal^3, D-Pal(Bzl)^6, Lys(iPr)^8, D-Ala^10-LHRH.2TFA] (Ac-[Sar][dPhe(4-Cl)][d2Nal]SY[X2]L[Lys(iPr)]P[dA]-NH2)		very little histamine-releasing activity		
CC(=O)N[C@H](Cc1ccc2ccccc2c1)C(=O)N[C@H](Cc1ccc(Cl)cc1)C(=O)N[C@H](Cc1cccnc1)C(=O)N[C@@H](CO)C(=O)N[C@@H](Cc1ccc(O)cc1)C(=O)N[C@H](CCC(N)=O)C(=O)N[C@@H](CC(C)C)C(=O)N[C@@H](CCCCNC(C)C)C(=O)N1CCC[C@H]1C(=O)N[C@H](C)C(N)=O [Compound 3341, Ac-D-Nal^1,4-Cl-D-Phe^2, D-Pal^3, D-Gln^6-Lys(iPr)^8, D-Ala^10-LHRH.TFA] (Ac-[d2Nal][dPhe(4-Cl)][d3Pal]SY[dQ]L[Lys(iPr)]P[dA]-NH2)		very low histamine release		
CC(=O)N[C@H](Cc1ccc2ccccc2c1)C(=O)N[C@H](Cc1ccc(Cl)cc1)C(=O)N[C@H](Cc1cccnc1)C(=O)N[C@@H](CO)C(=O)N[C@@H](Cc1ccc(O)cc1)C(=O)N[C@H](CCC(=O)NCCS(=O)(=O)O)C(=O)N[C@@H](CC(C)C)C(=O)N[C@@H](CCCCNC(C)C)C(=O)N1CCC[C@H]1C(=O)N[C@H](C)C(N)=O [Compound 3361, Ac-D-Nal^1,4-Cl-D-Phe^2, D-Pal^3, D-Glu(Taurine)^6-Lys(iPr)^8, D-Ala^10-LHRH.TFA] (Ac-[d2Nal][dPhe(4-Cl)][d3Pal]SY[dE](NHCH2CH2SO3H)L[Lys(iPr)]P[dA]-NH2)		very low histamine release		
Ac-D-Nal^1, 4-Cl-D-Phe^2, D-Pal^3, His^5D-Pal(iPr)^6, Lys(iPr)^8, D-Ala^10-LHRH.2TFA [Compound 3982]			8/8@1.00	Histamine release ED50 ([1]; footnote c: run with Nal arg reference 0.28): 53 µg/mL; Histamine release ED50 ([1]; footnote d: run with Nal arg reference 0.11): 33 µg/mL
CC(=O)N[C@H](Cc1ccc2ccccc2c1)C(=O)N[C@H](Cc1ccc(Cl)cc1)C(=O)N[C@H](Cc1cccnc1)C(=O)N[C@@H](CO)C(=O)N[C@@H](Cc1ccc(O)cc1)C(=O)N[C@H](CC(N)=O)C(=O)N[C@@H](CC(C)C)C(=O)N[C@@H](CCCCNC(C)C)C(=O)N1CCC[C@H]1C(=O)N[C@H](C)C(N)=O [Compound 3342, Ac-D-Nal^1,4-Cl-D-Phe^2, D-Pal^3, D-Asn^6-Lys(iPr)^8, D-Ala^10-LHRH.TFA] (Ac-[d2Nal][dPhe(4-Cl)][d3Pal]SY[dN]L[Lys(iPr)]P[dA]-NH2)		very low histamine release		
Ac-D-Nal^1, 4-Cl-D-Phe^2, D-Pal^3, D-Lys^6, Lys(iPr)^8, D-Ala^10-LHRH.TFA [Compound 3505]			5/8@1 μg	
Ac-D-Nal^1, 4-Cl-D-Phe^2, D-Trp^3, D-Arg^6, Lys(COCH2Br)^8, D-Ala^10-LHRH.TFA [Compound 3926]			6/8@1.0	
Ac-D-Nal^1, 4-Cl-D-Phe^2, D-Pal^3, D-Arg^6, Dap(COCH2S^+Me2)^8, D-Ala^10-LHRH.2TFA [Compound 4023]			0/8@1.00	AO activity (AOA), in words [2]: effective
